Source: patent EP3072511A1, “The medical use of 3-aryl substituted 1-indanones” (Centrum Badan Molekularnych I Makromolekularnych Polskiej …, priority 2013, dated 2016)

Assays:
[1] = tested on: cell line HeLa (cervix carcinoma, human); test: MTT cytotoxicity test, HeLa cells; conditions: 48 h, read-out: HeLa IC50 after 48h
bovine diarrhea virus = bovine diarrhea virus as counterpart of hepatitis virus C; cited from earlier work

| Structure (SMILES) | IC50 [1] | selectivity index (SI) (bovine diarrhea virus) |
| --- | --- | --- |
| COP(=O)(OC)C1C(=O)c2cc3c(cc2C1c1ccccc1)OCO3 (stereo not drawn) [Compound 1a, 2-phosphoryl-3-phenyl substituted 1-indanone] | 90 µM |  |
| COc1cc(OC)c2c(c1)C(=O)CC2c1ccc(Br)cc1 (stereo not drawn) [Compound 3a, 3-(para-bromophenyl) substituted 1-indanone] | 60 µM |  |
| NC(=O)c1ncn([C@@H]2O[C@H](CO)[C@@H](O)[C@H]2O)n1 [ribavirin] |  | 11.64 |
